By IC50 is commonly meant the concentration that gives 50% inhibition. The Ki is a dissociation constant, usually derived from enzyme kinetics or from competition with a known ligand.

Test [1] deals with Sodium-dependent noradrenaline transporter (Homo sapiens, UniProt P23975). Description: DRUGMATRIX: Norepinephrine Transporter radioligand binding (ligand: [125I] RTI-55). It is filed as cell membranes, MDCK, Membrane. Conditions: Not Active = under 50% inhibition at 10 µM.
The nature of test [2]: DRUGMATRIX: Serotonin (5-Hydroxytryptamine) 5-HT3 radioligand binding (ligand: [3H] GR-65630). Particulars: hek293; Not Active = under 50% inhibition at 10 µM. It is filed as cell membranes, Membrane.
A further test has as its target T1, Substance-K receptor (Homo sapiens, UniProt P21452). Also: in other assays of this panel Not Active means under 50% inhibition at 10 µM.
T1 sequence (P21452 whole entry): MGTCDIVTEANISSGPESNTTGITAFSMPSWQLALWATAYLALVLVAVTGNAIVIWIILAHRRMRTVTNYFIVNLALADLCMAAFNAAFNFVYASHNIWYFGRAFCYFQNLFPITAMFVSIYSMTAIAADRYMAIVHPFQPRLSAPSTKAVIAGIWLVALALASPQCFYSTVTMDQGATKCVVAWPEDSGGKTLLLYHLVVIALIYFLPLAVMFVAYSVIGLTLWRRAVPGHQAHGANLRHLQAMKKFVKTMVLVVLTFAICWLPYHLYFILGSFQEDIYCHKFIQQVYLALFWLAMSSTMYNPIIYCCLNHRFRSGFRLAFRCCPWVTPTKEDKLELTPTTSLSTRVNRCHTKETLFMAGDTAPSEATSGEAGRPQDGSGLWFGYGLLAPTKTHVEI
In kind it is cell membranes, CHO, Membrane.

Test [3] has as its target T2, Muscarinic acetylcholine receptor M5 (Homo sapiens, UniProt P08912). Also: in other assays of this panel Not Active means under 50% inhibition at 10 µM.
T2 sequence (P08912 whole entry): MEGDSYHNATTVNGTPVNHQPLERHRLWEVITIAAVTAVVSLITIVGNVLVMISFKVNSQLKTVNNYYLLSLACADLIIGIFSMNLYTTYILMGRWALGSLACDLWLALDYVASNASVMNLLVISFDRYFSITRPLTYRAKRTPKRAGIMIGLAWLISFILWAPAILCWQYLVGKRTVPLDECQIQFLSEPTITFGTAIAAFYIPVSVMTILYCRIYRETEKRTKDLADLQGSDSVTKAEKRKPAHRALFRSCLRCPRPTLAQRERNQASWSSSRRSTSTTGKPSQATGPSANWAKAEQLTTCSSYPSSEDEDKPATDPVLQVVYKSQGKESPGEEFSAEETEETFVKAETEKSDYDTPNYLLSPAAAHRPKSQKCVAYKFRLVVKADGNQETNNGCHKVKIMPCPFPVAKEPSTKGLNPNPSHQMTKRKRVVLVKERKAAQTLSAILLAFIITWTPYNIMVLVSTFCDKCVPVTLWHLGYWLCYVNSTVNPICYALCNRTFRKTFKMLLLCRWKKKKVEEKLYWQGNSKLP
In kind it is cell membranes, CHO-K1, Membrane. Particulars: cho-k1.

Test [4] deals with Protein kinase C alpha type (Homo sapiens, UniProt P17252). It is filed as cell-based. Conditions: sf9.
Test [5] has as its target T3, 5-hydroxytryptamine receptor 1A (Rattus norvegicus, UniProt P19327). Also: in other assays of this panel Not Active means under 50% inhibition at 10 µM.
T3 sequence (P19327 whole entry): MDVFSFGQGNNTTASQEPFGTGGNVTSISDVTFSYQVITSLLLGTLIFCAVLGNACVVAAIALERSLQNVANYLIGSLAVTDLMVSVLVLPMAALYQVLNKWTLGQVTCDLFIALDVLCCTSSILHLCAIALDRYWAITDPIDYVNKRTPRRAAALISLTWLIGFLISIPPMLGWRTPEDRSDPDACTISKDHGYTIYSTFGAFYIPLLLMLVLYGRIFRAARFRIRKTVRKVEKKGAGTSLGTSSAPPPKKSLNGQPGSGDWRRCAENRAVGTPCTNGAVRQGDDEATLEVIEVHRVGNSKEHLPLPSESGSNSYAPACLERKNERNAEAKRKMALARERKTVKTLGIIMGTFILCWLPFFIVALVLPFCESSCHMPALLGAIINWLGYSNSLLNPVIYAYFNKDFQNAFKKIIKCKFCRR
In kind it is cell membranes, CHO-K1, Membrane.

Sequence of Sodium-dependent noradrenaline transporter (P23975 whole entry): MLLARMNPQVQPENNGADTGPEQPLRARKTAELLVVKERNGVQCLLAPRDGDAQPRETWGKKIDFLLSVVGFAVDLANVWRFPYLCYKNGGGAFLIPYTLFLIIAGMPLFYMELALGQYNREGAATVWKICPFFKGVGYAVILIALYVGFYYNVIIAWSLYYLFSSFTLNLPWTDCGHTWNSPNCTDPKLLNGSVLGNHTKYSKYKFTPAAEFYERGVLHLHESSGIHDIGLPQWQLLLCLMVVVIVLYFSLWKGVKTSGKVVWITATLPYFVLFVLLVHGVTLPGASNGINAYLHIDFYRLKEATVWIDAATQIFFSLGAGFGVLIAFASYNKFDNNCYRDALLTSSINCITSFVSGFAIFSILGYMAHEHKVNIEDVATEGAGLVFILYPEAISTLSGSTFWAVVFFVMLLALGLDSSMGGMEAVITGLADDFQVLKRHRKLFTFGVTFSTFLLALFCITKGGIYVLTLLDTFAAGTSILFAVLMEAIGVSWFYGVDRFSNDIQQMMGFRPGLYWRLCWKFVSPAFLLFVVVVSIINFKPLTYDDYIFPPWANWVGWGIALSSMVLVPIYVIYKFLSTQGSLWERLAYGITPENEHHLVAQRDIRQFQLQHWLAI

Regarding `C[N+](C)(C)CCOC(N)=O.[Cl-]` [CARBACHOL], the 50% inhibitory concentration (IC50) entry (in test [1] (mdck); in test [2]; at Substance-K receptor (cho); in test [3]; in test [4]; in test [5] (cho-k1)) was “Not Active” in each case. Also, the Ki result in test [2] is “Not Active”.

Regarding `C[C@]12CC[C@@H](O)C[C@@H]1CC[C@@H]1[C@@H]2CC[C@]2(C)C(=O)CC[C@@H]12` [ANDROSTERONE], the 50% inhibitory concentration (IC50) entry (in test [1] (mdck); in test [2]; against Substance-K receptor (cho); in test [3]; in test [4]; in test [5] (cho-k1)) was “Not Active” in each case. Further, the inhibitory constant (Ki) entry in test [2] was “Not Active”.

For the compound `C[C@H](C(=O)O)c1ccc2oc(-c3ccc(F)cc3)nc2c1` [FLUNOXAPROFEN], the IC50 entry (in test [1] (mdck); in test [2]; against Substance-K receptor (cho); in test [3]; in test [4]; in test [5] (cho-k1)) was “Not Active” in each case. In addition, the Ki entry in test [2] was “Not Active”.

In the case of COPPER(II) OXIDE, the IC50 entry (in test [1] (mdck); in test [2]; at Substance-K receptor (cho); in test [3]; in test [4]; in test [5] (cho-k1)) was “Not Active” throughout. Further, the inhibition constant Ki entry (in test [1] (mdck); in test [2]; on Substance-K receptor (cho); in test [3]; in test [4]; in test [5] (cho-k1)) was “Not Active” each time.

With `NC(=O)CN1CCCC1=O`, the IC50 result (in test [1] (mdck); in test [2]; against Substance-K receptor (cho); in test [3]; in test [4]; in test [5] (cho-k1)) was “Not Active” each time. Further, in test [2], the Ki entry is “Not Active”.

`O=C1c2ccccc2C(=O)C1c1ccccc1` [PHENINDIONE]: the IC50 entry (in test [1] (mdck); in test [2]; against Substance-K receptor (cho); in test [3]; in test [4]; in test [5] (cho-k1)) was “Not Active” in each case. Moreover, the inhibition constant (Ki) entry in test [2] is on record as “Not Active”.

Take `CCN1C[C@]2(COC)[C@H](O)C[C@H](OC)[C@@]34[C@@H]5C[C@@]6(O)[C@H](OC(=O)c7ccccc7)[C@@H]5[C@@](OC(C)=O)([C@@H]([C@H](OC)[C@H]23)[C@@H]14)[C@@H](O)[C@@H]6OC` [ACONITINE]: the IC50 result (in test [1] (mdck); in test [2]; against Substance-K receptor (cho); in test [3]; in test [4]; in test [5] (cho-k1)) was “Not Active” throughout. In addition, the Ki result in test [2] is reported as “Not Active”.

In the case of `O=C(NCCN1CCOCC1)c1ccc(Cl)cc1` [MOCLOBEMIDE], the IC50 entry (in test [1] (mdck); in test [2]; against Substance-K receptor (cho); in test [3]; in test [4]; in test [5] (cho-k1)) was “Not Active” throughout. Also, the Ki result in test [2] is “Not Active”.

Consider `O=C(O)COC(=O)Cc1ccccc1Nc1c(Cl)cccc1Cl` [ACECLOFENAC], for which the IC50 entry (in test [1] (mdck); in test [2]; on Substance-K receptor (cho); in test [3]; in test [4]; in test [5] (cho-k1)) was “Not Active” in each case. The Ki entry in test [2] is “Not Active”.

`COc1cc(/C=C/C(=O)O)ccc1O` [FERULATE]: the IC50 entry (in test [1] (mdck); in test [2]; on Substance-K receptor (cho); in test [3]; in test [4]; in test [5] (cho-k1)) was “Not Active” in each case. Also, the Ki result in test [2] was “Not Active”.

For `O=c1[nH]c2ccccc2c2ccccc12`, the IC50 result (in test [1] (mdck); in test [2]; against Substance-K receptor (cho); in test [3]; in test [4]; in test [5] (cho-k1)) was “Not Active” throughout. In addition, in test [2], the Ki entry is listed as “Not Active”.

As to `COc1ccc(C[C@H](N)C(=O)N[C@H]2[C@@H](O)[C@H](n3cnc4c(N(C)C)ncnc43)O[C@@H]2CO)cc1` [PUROMYCIN], the concentration for half-maximal inhibition (IC50) result (in test [1] (mdck); in test [2]; against Substance-K receptor (cho); in test [3]; in test [4]; in test [5] (cho-k1)) was “Not Active” each time. Moreover, in test [2], the inhibition constant (Ki) entry is “Not Active”.

As for `NC(=O)NC(=O)Cc1ccccc1` [PHENACEMIDE], the concentration for half-maximal inhibition (IC50) result (in test [1] (mdck); in test [2]; on Substance-K receptor (cho); in test [3]; in test [4]; in test [5] (cho-k1)) was “Not Active” throughout. The inhibition constant Ki entry in test [2] is given as “Not Active”.

Regarding `COc1ccccc1OCCNCC(O)COc1cccc2[nH]c3ccccc3c12` (stereo not given) [CARVEDILOL], the IC50 in test [1] (read-out: IC50) is 538 nM; in test [2], “Not Active”; at Substance-K receptor (cho), “Not Active”; in test [3], “Not Active”; in test [4] it was “Not Active”; in test [5] (read-out: IC50), 5.84 nM. Besides, the inhibition constant Ki in test [1] (read-out: Ki) was 533 nM; in test [2], “Not Active”; in test [5] (read-out: Ki), 3.34 nM.

For `CC(N)Cc1c[nH]c2ccc(OCc3cccs3)cc12` (stereo not given) [BW-723C86], the IC50 in test [1] (read-out: IC50) was 3630 nM; in test [2], “Not Active”; on Substance-K receptor (cho) it was “Not Active”; in test [3], “Not Active”; in test [4], “Not Active”; in test [5] (read-out: IC50), 1130 nM. Besides, the figures for the Ki in test [1] (read-out: Ki), in test [2] and in test [5] (read-out: Ki) were 3600 nM, “Not Active” and 644 nM, respectively.

On to `c1ccc2c(c1)Nc1ccccc1S2` [PHENOTHIAZINE], for which the IC50 in test [1] (read-out: IC50) is 461 nM; in test [2] it was “Not Active”; against Substance-K receptor (cho) it was “Not Active”; in test [3] it was “Not Active”; in test [4], “Not Active”; in test [5] (cho-k1), “Not Active”. Also, the Ki in test [1] (read-out: Ki) was 457 nM; in test [2], “Not Active”.

In the case of POVIDONE, the 50% inhibitory concentration (IC50) result (in test [1] (mdck); in test [2]; at Substance-K receptor (cho); in test [3]; in test [4]; in test [5] (cho-k1)) was “Not Active” throughout. Moreover, the Ki result (in test [1] (mdck); in test [2]; at Substance-K receptor (cho); in test [3]; in test [4]; in test [5] (cho-k1)) was “Not Active” throughout.

Take `CCO` [ALCOHOL]: the half-inhibitory concentration (IC50) entry (in test [1] (mdck); in test [2]; on Substance-K receptor (cho); in test [3]; in test [4]; in test [5] (cho-k1)) was “Not Active” in each case. Also, the Ki result in test [2] was “Not Active”.

Turning to `Clc1cc(Cl)c(OCC#CI)cc1Cl` [HALOPROGIN], the IC50 in test [1] (read-out: IC50) was 2770 nM; in test [2] it was “Not Active”; at Substance-K receptor (read-out: IC50), 1470 nM; in test [3], “Not Active”; in test [4], “Not Active”; in test [5] (cho-k1), “Not Active”. Further, the Ki was 2750 nM in test [1] (read-out: Ki), “Not Active” in test [2] and 491 nM on Substance-K receptor (read-out: Ki).

Take `CNC[C@H](O)c1ccc(O)c(O)c1` [EPINEPHRINE]: the IC50 entry (in test [1] (mdck); against Substance-K receptor (cho); in test [3]; in test [4]; in test [5] (cho-k1)) was “Not Active” each time.

The values above are taken from ChEMBL document CHEMBL1909046, “DrugMatrix in vitro pharmacology data”.
